# What was measured:
# Assay type in all cases: in vivo, rat
# [1] = tested on: rats with non-alcoholic steatohepatitis induced by high-fat diet; assay: Serum biochemical indices, non-alcoholic steatohepatitis model induced by high-fat diet; conditions: end of 8th week of administration, positive control group
# Protocol: (§1) After establishing the model, the drug groups received their respective treatments at a dosage of 10 ml/kg while the normal and model groups received an equal volume of 0.5% CMC-Na solution. The rats were provided with ad libitum access to water and food, while the animal chamber was maintained under controlled conditions of quietness, natural lighting, a temperature of 25±0.5° C., and a humidity level of 55±5%. The rats' body weights were measured once per week and recorded.
# At the end of the 8th week of administration, all rats were anesthetized with a 20% ulinastatin solution (10 ml/kg) via an intraperitoneal injection after the final administration. Subsequently, blood was collected from the abdominal aorta post-anesthesia. After standing for 1 hour, the blood was centrifuged at 4° C. and 3000 r/min for 15 minutes to obtain the upper serum fraction which was then stored at −80° C. Following the instructions provided by the biochemical index detection kit, levels of HDL-C, LDL-C, NEFA, AST, ALT, UA, TC, TG, FPG and FINS in rat serum were determined.
# [2] = tested on: rats with nonalcoholic steatohepatitis induced by a high-fat diet and CCl4; assay: Liver indices, non-alcoholic steatohepatitis model induced by high-fat diet and CCl4; conditions: positive control group
# Protocol: (§2) The normal control group were fed a standard diet while the other groups were exclusively fed a high-fat diet consisting of 88% basal diet +10% lard +2% cholesterol for the initial six weeks. Starting from the seventh week, they received subcutaneous injections of a 30% CCl4 olive oil solution at a dosage of 0.2 ml/100 g behind their back twice per week for a total of four times. Once the model was successfully replicated, the corresponding drugs were administered orally (10 ml/kg) in each treatment group, and both the normal control group and the model group received equal volumes of a 0.5% CMC-Na solution once daily for ten consecutive weeks. Throughout the experimental period, the rats were provided with ad libitum access to food and water, while the animal chamber was maintained under controlled conditions of quietness, natural lighting, a temperature of 25±0.5° C., and a humidity level of 55±5%. The rats' body weights were measured once per week and recorded.
# After blood sampling from the abdominal aorta of rats, the liver tissue was isolated, rinsed with normal saline solution, dried using filter paper, weighed accurately, and subsequently calculated the Liver indices: Liver indices=wet liver weight/body weight×100%.
# [3] = tested on: rats with nonalcoholic steatohepatitis induced by a high-fat diet and CCl4; assay: Liver histopathology (HE, oil red, Masson staining), high-fat diet and CCl4 model; conditions: positive control groups and NR218 high-, medium-, low-dose groups
# Protocol: as §2
# After collecting blood samples from the abdominal aorta of rats, the liver tissue was isolated and fixed in a 10% neutral formalin solution. Following standard procedures for embedding, sectioning, dewaxing, staining, clearing, and sealing, the liver tissues were subjected to HE (hematoxylin-eosin), Masson's trichrome, and oil red staining techniques respectively. […]
# [4] = Body weight of rats, high-fat diet + CCl4 non-alcoholic steatohepatitis model; conditions: positive control group, in g (unit assumed)
# Protocol: as §2
# The weight changes of rats in each group were compared by conducting weekly weigh-ins after the experiment.
# [5] = Body weight of rats, high-fat diet non-alcoholic steatohepatitis model; conditions: positive control group, in g (unit assumed)
# Protocol: as §1, with “The normal control group was fed a standard diet for twelve weeks while the other groups were fed a high-fat diet consisting of 88% basal diet+10% lard+2% cholesterol for twelve weeks. After” for “After”
# The rats were weighed weekly to monitor the fluctuations in body weight within each experimental group.
compound,measurement,setting,value
COC(=O)c1cc(OC)c2c(c1-c1c(CO)cc(OC)c3c1OCO3)OCO2 [Bicyclol],HOMA-IR,[1]; FPG x FINS/22.5,1.04
same,ALT,[1]; serum,547.14 U/L
same,AST,[1]; serum,19.65 U/L
same,HDL-C,[1]; serum,1.34 mmol/L
same,LDL-C,[1]; serum,0.91 mmol/L
same,NEFA,[1]; serum,0.92 mmol/L
same,TC,[1]; serum,2.76 mmol/L
same,TG,[1]; serum,0.83 mmol/L
same,UA,[1]; serum,81.3 µmol/L
same,Liver Indices,[2],3.48 ± 0.41 %
same,Oil red O staining of liver tissue (in words),[3],significantly ameliorated steatosis severity and reduced lipid droplet content
same,body weight,[4]; week 1,195.81 ± 5.12
same,body weight,[4]; week 2,252.07 ± 9.62
same,body weight,[4]; week 3,293.51 ± 34.27
same,body weight,[4]; week 4,366.45 ± 19.21
same,body weight,[4]; week 5,404.78 ± 18.71
same,body weight,[4]; week 6,438.13 ± 24.81
same,body weight,[4]; week 7,471.76 ± 26.05
same,body weight,[4]; week 8,493.73 ± 28.93
same,body weight,[4]; week 9,500.11 ± 35.71
same,body weight,[4]; week 10,516.75 ± 35.02
same,body weight,[4]; week 11,483.11 ± 32.67
same,body weight,[4]; week 12,486.89 ± 36.07
same,body weight,[4]; week 13,508.69 ± 60.33
same,body weight,[4]; week 14,526.54 ± 51.97
same,body weight,[4]; week 15,536.32 ± 44.50
same,body weight,[4]; week 16,559.17 ± 38.21
same,body weight,[4]; week 17,573.81 ± 44.40
same,body weight,[4]; week 18,581.09 ± 46.08
same,body weight,[5]; week 0 (pre-administration),195.09 ± 3.95
same,body weight,[5]; week 1 (pre-administration),254.99 ± 12.09
same,body weight,[5]; week 2 (pre-administration),307.37 ± 12.92
same,body weight,[5]; week 3 (pre-administration),343.86 ± 17.21
same,body weight,[5]; week 4 (pre-administration),379.51 ± 22.29
same,body weight,[5]; week 5 (pre-administration),413.81 ± 26.94
same,body weight,[5]; week 6 (pre-administration),444.77 ± 32.35
same,body weight,[5]; week 7 (pre-administration),461.64 ± 35.88
same,body weight,[5]; week 8 (pre-administration),493.67 ± 41.04
same,body weight,[5]; week 9 (pre-administration),510.27 ± 41.17
same,body weight,[5]; week 10 (pre-administration),526.93 ± 47.38
same,body weight,[5]; week 11 (pre-administration),541.47 ± 50.20
same,body weight,[5]; week 12 (pre-administration),550.05 ± 58.70
same,body weight,[5]; week 13,526.35 ± 68.66
same,body weight,[5]; week 14,515.27 ± 58.62
same,body weight,[5]; week 15,519.07 ± 54.38
same,body weight,[5]; week 16,539.33 ± 58.40
same,body weight,[5]; week 17,562.79 ± 61.59
same,body weight,[5]; week 18,588.75 ± 70.94
same,body weight,[5]; week 19,593.71 ± 72.81
same,body weight,[5]; week 20,586.53 ± 112.38

# Reference: US20250302795A1, “SMALL MOLECULE COMPOUNDS WITH NEGATIVE REGULATORY EFFECTS ON Nrf2 SIGNALING [sequence] AND THEIR POTENTIAL APPLICATIONS” (Beijing Hebabiz Biotechnology Co., Inc., priority 2022, published 2025)
